Measured values taken from patent US20050176739A1, “Therapeutic agent for eating disorders” (priority 1999, published 2005).

Assays:
Crj:CD (SD) rats [1] = test: Action of increasing feed intake by 4-week oral administration (Test Example 1); type: in vivo, rat
Experimental: Action of Increasing Feed Intake by 4-Week Oral Administration
Compound 1 was suspended in a 0.5% aqueous methyl cellulose solution to a final concentration of 0.6 mg/mL for 6 mg/kg dose, 3 mg/mL for 30 mg/kg dose, 16 mg/mL for 160 mg/kg dose, or 80 mg/mL for 800 mg/kg dose, and the resulting solution was used.
Male and female Crj:CD (SD) rats (SPF) at the age of 5 weeks were purchased from Nippon Charles River Co., Ltd., and were then fed and conditioned for 9 days. During the term, their body weight change and conditions were observed, and animals determined as in healthy conditions were used at the test. At the start of the use, the body weights of the male animals were within a range of 187 to 209 g, while those of the female animals were within a range of 147 to 173 g. During both of the conditioning and feeding term and the test term, the animals were fed with a solid feed for mouse and rat (CRF-1 15 kGy, Oriental Yeast Industry, Co., Ltd.) and with water, ad libitum.
(§1) As to the number of the animals used, 15 each of male and female animals were used for each group. As a negative control group, a group administered a 0.5% aqueous methyl cellulose solution alone was prepared. Based on the body weight at the termination of the conditioning and feeding term, the animals were randomly assigned to individual groups, so that the body weights were uniformly distributed among the resulting individual groups.
Oral administration was selected as the administration route. The solvent or a test compound-containing solution was administered once daily in the morning for 4 weeks in a dose of 1 mL per 100 g of body weight.
The feed intake of the test animals was measured on days 7, 14, 21 and 28. The measured values were tested for homoscedasticity by the Bartlett's test. When the variance was homogeneous, one-way layout analysis of variance was performed; in the case that significance was observed, herein, the control group and the individual dosed groups were tested by the Dunnett's test. When the variance was not homogeneous, the Kruskal-Wallis's rank test was performed; in the case that significance was observed among the groups, the Dunnett's test was conducted.

[2] = Body weight change by 4-week oral administration (Test Example 2); type: in vivo, rat
Experimental: (§2) Action of Increasing Feed Intake and Body Weight by 4-Week Oral Administration
(§3) Compound 1 was suspended in a 0.5% aqueous methyl cellulose solution to a final concentration of 20 mg/mL for 200 mg/kg dose or 40 mg/mL for 400 mg/kg dose, and the resulting solution was used.
(§4) Male and female Crj:CD (SD) rats (SPF) at the age 5 of weeks were purchased from Nippon Charles River Co., Ltd., and were then fed and conditioned for 7 days. During the term, their body weight change and conditions were observed, and animals determined as in healthy conditions were used at the test. At the start of the use, the body weights of the male animals were within a range of 177.4 to 193.6 g, while those of the female animals were within a range of 141.1 to 160.3 g. During both of the conditioning and feeding term and the test term, the animals were fed with a solid feed for mouse and rat [FR-2, Funabashi Agricultural Farm Co., Ltd.] and with water ad libitum.
as §1, with “5” for “15”
(§5) Oral administration was selected as the administration route. The solvent or the test compound was administered once daily in the morning for 4 weeks in a dose of 1 mL per 100 g of body weight.
(§6) The body weights and feed intake of the test animals were measured on days 0, 7, 14, 21 and 28. The individual measured values were tested, based on the same standards as in the […].

Crj:CD (SD) rats [3] = test: Feed intake change by 4-week oral administration (Test Example 2); type: in vivo, rat
Experimental: as §2, §3, §4
as §1, with “5” for “15”
as §5, §6

dd-strain male mice = test: Acute toxicity test; type: in vivo, mouse; details: oral administration, mortality seven days after administration
Description: Test compounds were orally administered to groups of dd-strain male mice weighing 20±1 g, each group consisting of three mice.

[4] = 4-week oral administration, male and female rats
[5] = female rats, 200 mg/kg po once daily, day 0
[6] = female rats, 200 mg/kg po once daily, day 7
[7] = female rats, 200 mg/kg po once daily, day 14
[8] = female rats, 200 mg/kg po once daily, day 21
[9] = female rats, 200 mg/kg po once daily, day 28
[10] = female rats, 400 mg/kg po once daily, day 0
[11] = female rats, 400 mg/kg po once daily, day 7
[12] = female rats, 400 mg/kg po once daily, day 14
[13] = female rats, 400 mg/kg po once daily, day 21
[14] = female rats, 400 mg/kg po once daily, day 28
[15] = male rats, 200 mg/kg po once daily, day 0
[16] = male rats, 200 mg/kg po once daily, day 7
[17] = male rats, 200 mg/kg po once daily, day 14
[18] = male rats, 200 mg/kg po once daily, day 21
[19] = male rats, 200 mg/kg po once daily, day 28
[20] = male rats, 400 mg/kg po once daily, day 0
[21] = male rats, 400 mg/kg po once daily, day 7
[22] = male rats, 400 mg/kg po once daily, day 14
[23] = male rats, 400 mg/kg po once daily, day 21
[24] = male rats, 400 mg/kg po once daily, day 28

## CCn1c(=O)c2c(nc(/C=C/c3ccc(OC)c(OC)c3)n2C)n(CC)c1=O [Compound 1, (E)-8-(3,4-dimethoxystyryl)-1,3-diethyl-7-methylxanthine]
Crj:CD (SD) rats [1]; [4]
  effect on feed intake (in words): increased the feed intake both in the males and in the females
Crj:CD (SD) rats [1]; female rats, 6 mg/kg po once daily, day 7
  Feed intake (g ± SD): 15.93 ± 1.09 g
Crj:CD (SD) rats [1]; female rats, 6 mg/kg po once daily, day 14
  Feed intake (g ± SD): 18.03 ± 1.37 g
Crj:CD (SD) rats [1]; female rats, 6 mg/kg po once daily, day 21
  Feed intake (g ± SD): 18.76 ± 1.18 g
Crj:CD (SD) rats [1]; female rats, 6 mg/kg po once daily, day 28
  Feed intake (g ± SD): 18.80 ± 1.46 g
Crj:CD (SD) rats [1]; female rats, 30 mg/kg po once daily, day 7
  Feed intake (g ± SD): 17.24 ± 1.19 g
Crj:CD (SD) rats [1]; female rats, 30 mg/kg po once daily, day 14
  Feed intake (g ± SD): 19.38 ± 1.74 g
Crj:CD (SD) rats [1]; female rats, 30 mg/kg po once daily, day 21
  Feed intake (g ± SD): 19.93 ± 2.08 g
Crj:CD (SD) rats [1]; female rats, 30 mg/kg po once daily, day 28
  Feed intake (g ± SD): 20.50 ± 1.96 g
Crj:CD (SD) rats [1]; female rats, 160 mg/kg po once daily, day 7
  Feed intake (g ± SD): 17.73 ± 1.40 g
Crj:CD (SD) rats [1]; female rats, 160 mg/kg po once daily, day 14
  Feed intake (g ± SD): 19.56 ± 1.68 g
Crj:CD (SD) rats [1]; female rats, 160 mg/kg po once daily, day 21
  Feed intake (g ± SD): 20.56 ± 1.73 g
Crj:CD (SD) rats [1]; female rats, 160 mg/kg po once daily, day 28
  Feed intake (g ± SD): 20.87 ± 2.04 g
Crj:CD (SD) rats [1]; female rats, 800 mg/kg po once daily, day 7
  Feed intake (g ± SD): 17.30 ± 0.99 g
Crj:CD (SD) rats [1]; female rats, 800 mg/kg po once daily, day 14
  Feed intake (g ± SD): 19.19 ± 1.44 g
Crj:CD (SD) rats [1]; female rats, 800 mg/kg po once daily, day 21
  Feed intake (g ± SD): 20.43 ± 1.69 g
Crj:CD (SD) rats [1]; female rats, 800 mg/kg po once daily, day 28
  Feed intake (g ± SD): 21.13 ± 1.76 g
Crj:CD (SD) rats [1]; male rats, 6 mg/kg po once daily, day 7
  Feed intake (g ± SD): 21.45 ± 1.28 g
Crj:CD (SD) rats [1]; male rats, 6 mg/kg po once daily, day 14
  Feed intake (g ± SD): 23.97 ± 1.21 g
Crj:CD (SD) rats [1]; male rats, 6 mg/kg po once daily, day 21
  Feed intake (g ± SD): 24.96 ± 1.58 g
Crj:CD (SD) rats [1]; male rats, 6 mg/kg po once daily, day 28
  Feed intake (g ± SD): 25.23 ± 1.80 g
Crj:CD (SD) rats [1]; male rats, 30 mg/kg po once daily, day 7
  Feed intake (g ± SD): 23.54 ± 2.15 g
Crj:CD (SD) rats [1]; male rats, 30 mg/kg po once daily, day 14
  Feed intake (g ± SD): 26.12 ± 2.03 g
Crj:CD (SD) rats [1]; male rats, 30 mg/kg po once daily, day 21
  Feed intake (g ± SD): 27.03 ± 2.07 g
Crj:CD (SD) rats [1]; male rats, 30 mg/kg po once daily, day 28
  Feed intake (g ± SD): 27.37 ± 2.56 g
Crj:CD (SD) rats [1]; male rats, 160 mg/kg po once daily, day 7
  Feed intake (g ± SD): 23.94 ± 1.58 g
Crj:CD (SD) rats [1]; male rats, 160 mg/kg po once daily, day 14
  Feed intake (g ± SD): 26.20 ± 1.77 g
Crj:CD (SD) rats [1]; male rats, 160 mg/kg po once daily, day 21
  Feed intake (g ± SD): 27.31 ± 1.74 g
Crj:CD (SD) rats [1]; male rats, 160 mg/kg po once daily, day 28
  Feed intake (g ± SD): 27.81 ± 2.47 g
Crj:CD (SD) rats [1]; male rats, 800 mg/kg po once daily, day 7
  Feed intake (g ± SD): 22.84 ± 1.81 g
Crj:CD (SD) rats [1]; male rats, 800 mg/kg po once daily, day 14
  Feed intake (g ± SD): 25.40 ± 2.42 g
Crj:CD (SD) rats [1]; male rats, 800 mg/kg po once daily, day 21
  Feed intake (g ± SD): 26.67 ± 2.19 g
Crj:CD (SD) rats [1]; male rats, 800 mg/kg po once daily, day 28
  Feed intake (g ± SD): 27.03 ± 2.37 g
[2]; [4]
  effect on body weight (in words): increased the feed intake and body weight
[2]; [5]
  Body weight (g ± SD): 151.0 ± 5.7 g
[2]; [6]
  Body weight (g ± SD): 178.6 ± 7.6 g
[2]; [7]
  Body weight (g ± SD): 206.0 ± 7.1 g
[2]; [8]
  Body weight (g ± SD): 232.5 ± 13.4 g
[2]; [9]
  Body weight (g ± SD): 255.7 ± 17.3 g
[2]; [10]
  Body weight (g ± SD): 152.9 ± 4.5 g
[2]; [11]
  Body weight (g ± SD): 178.1 ± 3.3 g
[2]; [12]
  Body weight (g ± SD): 207.8 ± 11.5 g
[2]; [13]
  Body weight (g ± SD): 236.5 ± 16.3 g
[2]; [14]
  Body weight (g ± SD): 259.3 ± 14.3 g
[2]; [15]
  Body weight (g ± SD): 191.2 ± 2.4 g
[2]; [16]
  Body weight (g ± SD): 247.3 ± 4.8 g
[2]; [17]
  Body weight (g ± SD): 313.5 ± 12.1 g
[2]; [18]
  Body weight (g ± SD): 371.5 ± 23.9 g
[2]; [19]
  Body weight (g ± SD): 419.2 ± 28.0 g
[2]; [20]
  Body weight (g ± SD): 189.5 ± 4.4 g
[2]; [21]
  Body weight (g ± SD): 242.5 ± 10.7 g
[2]; [22]
  Body weight (g ± SD): 304.8 ± 15.7 g
[2]; [23]
  Body weight (g ± SD): 361.9 ± 23.8 g
[2]; [24]
  Body weight (g ± SD): 415.6 ± 29.2 g
Crj:CD (SD) rats [3]; [4]
  effect on feed intake (in words): increased the feed intake
Crj:CD (SD) rats [3]; [5]
  Feed intake (g ± SD): 13.4 ± 1.7 g
Crj:CD (SD) rats [3]; [6]
  Feed intake (g ± SD): 20.2 ± 1.7 g
Crj:CD (SD) rats [3]; [7]
  Feed intake (g ± SD): 21.8 ± 1.7 g
Crj:CD (SD) rats [3]; [8]
  Feed intake (g ± SD): 20.9 ± 2.6 g
Crj:CD (SD) rats [3]; [9]
  Feed intake (g ± SD): 23.8 ± 3.0 g
Crj:CD (SD) rats [3]; [10]
  Feed intake (g ± SD): 14.6 ± 1.7 g
Crj:CD (SD) rats [3]; [11]
  Feed intake (g ± SD): 19.5 ± 2.2 g
Crj:CD (SD) rats [3]; [12]
  Feed intake (g ± SD): 21.1 ± 2.9 g
Crj:CD (SD) rats [3]; [13]
  Feed intake (g ± SD): 22.0 ± 2.6 g
Crj:CD (SD) rats [3]; [14]
  Feed intake (g ± SD): 24.5 ± 2.5 g
Crj:CD (SD) rats [3]; [15]
  Feed intake (g ± SD): 20.1 ± 1.0 g
Crj:CD (SD) rats [3]; [16]
  Feed intake (g ± SD): 28.4 ± 1.5 g
Crj:CD (SD) rats [3]; [17]
  Feed intake (g ± SD): 29.9 ± 1.6 g
Crj:CD (SD) rats [3]; [18]
  Feed intake (g ± SD): 30.2 ± 3.5 g
Crj:CD (SD) rats [3]; [19]
  Feed intake (g ± SD): 31.0 ± 1.1 g
Crj:CD (SD) rats [3]; [20]
  Feed intake (g ± SD): 20.7 ± 1.2 g
Crj:CD (SD) rats [3]; [21]
  Feed intake (g ± SD): 27.9 ± 2.5 g
Crj:CD (SD) rats [3]; [22]
  Feed intake (g ± SD): 30.2 ± 3.8 g
Crj:CD (SD) rats [3]; [23]
  Feed intake (g ± SD): 30.3 ± 3.9 g
Crj:CD (SD) rats [3]; [24]
  Feed intake (g ± SD): 34.8 ± 4.4 g
dd-strain male mice
  minimum lethal dose (MLD): greater than 1000 mg/kg

## CCn1c(=O)c2c(nc(/C=C/c3cc(OC)c4c(c3)OCO4)n2C)n(CC)c1=O [Compound 3, (E)-1,3-diethyl-8-(3-methoxy-4,5-methylenedioxystyryl)-7-methylxanthine]
other
  melting point: 201.5 to 202.3 °C
